Assay results taken from US9504675B2, “Alpha-ketoheterocycles and methods of making and using” (The Scripps Research Institute, priority 2011, dated 2016).
“Also recorded” adds a separate entry of the source.

Experiments:
[1] = molecular target: T1, recombinant rat FAAH (rFAAH) (Rattus norvegicus, UniProt P97612); assay: Enzyme assay: inhibition of purified recombinant rat FAAH, 14C-oleamide hydrolysis, Ki by Dixon plot; assay type: biochemical
T1 construct: The truncated rat FAAH (rFAAH) was expressed in E. coli and purified; made in house; host or cells: Escherichia coli
T1 sequence (P97612 30-579 limits assumed): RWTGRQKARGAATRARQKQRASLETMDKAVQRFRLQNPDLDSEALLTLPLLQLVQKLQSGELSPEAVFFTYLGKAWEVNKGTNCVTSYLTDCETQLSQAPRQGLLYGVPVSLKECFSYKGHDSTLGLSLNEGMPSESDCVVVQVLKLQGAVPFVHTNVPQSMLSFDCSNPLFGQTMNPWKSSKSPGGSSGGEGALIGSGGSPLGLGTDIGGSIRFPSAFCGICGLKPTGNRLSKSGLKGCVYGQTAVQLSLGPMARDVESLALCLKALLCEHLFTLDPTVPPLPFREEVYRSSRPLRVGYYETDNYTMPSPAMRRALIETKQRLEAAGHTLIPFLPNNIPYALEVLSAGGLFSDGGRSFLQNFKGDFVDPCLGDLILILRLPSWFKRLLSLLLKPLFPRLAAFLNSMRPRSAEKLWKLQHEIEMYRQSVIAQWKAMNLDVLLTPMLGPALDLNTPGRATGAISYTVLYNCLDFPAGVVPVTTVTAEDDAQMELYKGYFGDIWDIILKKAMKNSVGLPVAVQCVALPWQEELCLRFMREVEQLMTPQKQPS
Procedure, shortened: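 Hydrolysis of 14C-oleamide at 20-23° C by purified truncated rat FAAH expressed in E. coli or by lysate of COS-7 cells transfected with full-length human FAAH, in 125 mM Tris/1 mM EDTA/0.2% glycerol/0.02% Triton X-100/0.4 mM Hepes, pH 9.0. Reaction stopped in 0.1 N HCl at three time points; substrate and product separated by TLC; Ki from Dixon plot.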

human FAAH (hFAAH) = molecular target: T2, human FAAH (hFAAH) (Homo sapiens, UniProt O00519); assay: Enzyme assay: inhibition of human FAAH (lysate of hFAAH-transfected COS-7 cells), 14C-oleamide hydrolysis; assay type: biochemical
T2 construct: The full-length human FAAH (hFAAH) was expressed in COS-7 cells; expressed in transfected cells; host or cells: COS-7 (transiently transfected with human FAAH cDNA)
T2 sequence (O00519 1-579): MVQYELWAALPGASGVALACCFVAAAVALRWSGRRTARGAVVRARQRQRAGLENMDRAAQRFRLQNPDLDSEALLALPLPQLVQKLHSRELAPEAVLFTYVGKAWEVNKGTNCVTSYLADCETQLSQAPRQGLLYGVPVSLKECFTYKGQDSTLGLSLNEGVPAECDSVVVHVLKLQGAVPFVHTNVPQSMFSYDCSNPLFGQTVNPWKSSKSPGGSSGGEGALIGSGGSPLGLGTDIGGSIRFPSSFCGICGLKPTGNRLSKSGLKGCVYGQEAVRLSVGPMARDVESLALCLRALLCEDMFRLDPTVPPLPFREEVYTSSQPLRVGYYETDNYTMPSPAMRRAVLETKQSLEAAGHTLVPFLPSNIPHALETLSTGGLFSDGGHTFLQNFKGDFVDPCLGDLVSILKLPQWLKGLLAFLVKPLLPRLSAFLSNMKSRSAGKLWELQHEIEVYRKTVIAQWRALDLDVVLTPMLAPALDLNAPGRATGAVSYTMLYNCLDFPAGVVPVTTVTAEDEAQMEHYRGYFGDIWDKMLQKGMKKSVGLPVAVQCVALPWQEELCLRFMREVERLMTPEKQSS
Description: Enzyme assays were performed at 20-23° C. with purified recombinant rat FAAH expressed in Escherichia coli or with solubilized COS-7 membrane extracts from cells transiently transfected with human FAAH cDNA (where specifically indicated) in a buffer of 125 mM Tris/1 mM EDTA/0.2% glycerol/0.02% Triton X-100/0.4 mM Hepes, pH 9.0.
^14C-labeled oleamide was prepared from ^14C-labeled oleic acid. The truncated rat FAAH (rFAAH) was expressed in E. coli and purified. The purified recombinant rFAAH was used in the inhibition assays unless otherwise indicated. The full-length human FAAH (hFAAH) was expressed in COS-7 cells as described, and the lysate of hFAAH-transfected COS-7 cells was used in the inhibition assays where explicitly indicated.
The inhibition assays were performed as follows. […] The enzyme reaction was terminated by transferring 20 μL of the reaction mixture to 500 μL of 0.1 N HCl at three different time points. The ^14C-labeled oleamide (substrate) and oleic acid (product) were extracted with EtOAc and analyzed by TLC as detailed. The Ki of the inhibitor was calculated using a Dixon plot as described (standard deviations are provided in the Supporting Information tables).

[2] = system: endogenous levels of FAAH substrates AEA, PEA, OEA and of 2-AG, AA; assay: In vivo pharmacodynamic studies: brain and liver lipid levels after inhibitor treatment (LC-MS); design: species or system mouse (C57BL/6J)
Description: This includes monitoring the effects of the inhibitors on the endogenous levels of the FAAH substrates anandamide (AEA, N-arachidonoyl ethanolamine), N-oleoyl ethanolamine (OEA), and N-palmitoyl ethanolamine (PEA), as well as the key lipids 2-arachidonoylglycerol (2-AG) and arachidonic acid (AA) that are not endogenous substrates for FAAH.
Inhibitors were prepared as a saline-emulphor emulsion for intraperitoneal (i.p.) administration by vortexing, sonicating, and gently heating neat compound directly into an 18:1:1 v/v/v solution of saline:ethanol:emulphor, or as a homogeneous PEG solution for oral administration (p.o.) by vortexing, sonicating, and gently heating neat compound directly into PEG300 (Fluka). Male C57BL/6J mice (<6 months old, 20-28 g) were administered inhibitors in saline-emulphor emulsion or an 18:1:1 v/v/v saline:emulphor:ethanol vehicle i.p. at a volume of 10 μL/g weight, or alternatively inhibitors in PEG300 or a PEG300 vehicle p.o. at a volume of 4 μL/g weight. After the indicated amount of time, mice were anesthetized with isofluorane and killed by decapitation. Total brains (˜400 mg) and a portion of the liver (˜100 mg) were removed and flash frozen in liquid N2.
Tissue was weighed and subsequently Dounce homogenized in 2:1:1 v/v/v CHCl3:MeOH:Tris pH 8.0 (8 mL) containing standards for lipids (50 pmol d4-PEA, 2 pmol d4-AEA, 0.5 nmol ds-2-AG, and 10 nmol pentadecanoic acid). The mixture was vortexed and then centrifuged (1,400×g, 10 min). The organic layer was removed, dried under a stream of N2, resolubilized in 2:1 v/v CHCl3:MeOH (120 μL), and 10 μL of this resolubilized lipid was injected onto an Agilent G6410B QQQ instrument. […] Mobile phase A was composed of a 95:5 v/v H2O:MeOH, and mobile phase B was composed of a 65:35:5 v/v/v i-PrOH:MeOH:H2O. 0.1% Formic acid or 0.1% ammonium hydroxide was included to assist in ion formation in positive and negative ionization mode, respectively. The flow rate for each run started at 0.1 mL/min with 0% B. At 5 min, the solvent was immediately changed to 60% B with a flow rate of 0.4 mL/min and increased linearly to 100% B over 10 min. […] MS analysis was performed with an electrospray ionization (ESI) source. […] For negative polarity, the analysis was performed in MS2 scan mode from 100-1000 m/z. The capillary was set to 4 kV, the fragmentor was set to 100 V, and the delta EMV was set to 0. Lipids were quantified by measuring the area under the peak in comparison to the standards.

[3] = system: mice with CCI neuropathic pain; assay: Chronic constriction injury (CCI) of the sciatic nerve: mechanical (von Frey) and cold (acetone) allodynia; assay type: in vivo, mouse (C57BL/6); details: 50 mg/kg p.o.
Description: Surgery was performed as follows. Briefly, the right hind leg of male C57BL/6 mice was shaved and swabbed with betadine solution and ethanol. Posterior to the femur, an incision was made and the sciatic nerve was visualized and isolated, following muscle separation. The nerve was ligated twice with 5-0 (1.0 metric) black silk braided suture (Surgical Specialties Corporation, Reading, Pa.). The surrounding muscle and skin were then sutured with 6-0 nylon. Mice were recovered in a heated cage and observed for approximately 2 h before being returned to the vivarium.
Allodynia was initially tested 10 days after surgery. Male C57BL/6 mice were habituated to the test apparatus for 2 h on the 2 days prior to testing. On the test day, the mice were brought into the test room, weighed, and allowed to acclimate for at least 1 h before the start of the experiment. […] Mechanical (von Frey) and cold (acetone-induced) allodynia were tested at 1, 3, 6, and 9 h post drug administration. Testing was carried out by a separate observer who was blinded to treatment conditions. Mechanical allodynia was assessed with von Frey filaments (North Coast Medical, Morgan Hill, Calif.), using the “up-down” method. Each hind paw was stimulated 5 times per filament (0.16-6.0 g), starting with the 0.6 g filament and increasing weight. Paw clutching or lifting, in response to three or more stimulations, was coded as a positive response. Once a positive response was detected, sequentially lighter-weight filaments were used to assess paw withdrawal threshold. Approximately 30 min after completing the von Frey test, cold allodynia was tested by propelling 10 μL of acetone (Fisher Bioscience) via air burst, from a 200 μL pipette (Rainin Instruments, Oakland, Calif.) onto the plantar surface of each hind paw. Total time lifting or clutching each paw was recorded, with a maximum time of 20 s.
Data Analyses: Behavioral data were analyzed using a two-way mixed factorial analysis of variance (ANOVA) for each paw, with drug treatment as the between subjects measure, and time as the within subjects measure. Follow-up comparisons were made using the Bonferroni test. All animals were included in the analyses. Differences between groups were considered statistically significant at p<0.05.

[4] = system: catalepsy, hypothermia, hypomotility (THC-like effects); assay: Cannabimimetic side effects after oral administration; assay type: in vivo; details: oral administration 50 mg/kg
[5] = 50 mg/kg p.o., time course up to 9 h
[6] = Table 6, 30 mg/kg i.p., 1 h, single mouse
[7] = Table 7, i.p. (30 mg/kg), 3 mice per group
[8] = Table 7, oral (50 mg/kg), 3 mice per group

`O=C(c1ncc(-c2ccccn2)o1)C1CCc2cc(Oc3ccccc3)ccc2C1` (centres unmarked) [Compound 12, (6-Phenoxy-1,2,3,4-tetrahydronaphthalen-2-yl)(5-(pyridin-2-yl)oxazol-2-yl)methanone] was tested, and the “mode of inhibition (Lineweaver-Burk analysis)” value [1] was “reversible, competitive inhibitor; also recorded: competitive, reversible inhibition”, the Ki ([1]; Ki, rFAAH, Table 5, active (S)-enantiomers) was 4.4 nM and the Ki (human FAAH (hFAAH); Table 5, active (S)-enantiomers) was 5.8 nM. The “reduction in activity against the human enzyme versus rat FAAH” value (human FAAH (hFAAH); hFAAH vs rFAAH, active (S)-enantiomers) was “no significant distinction”, the “duration of elevation of brain N-acylethanolamines (AEA, PEA, OEA)” value [2, 5] was “maintained over the 9 h time course” and the “time of peak brain levels of anandamide” value [2, 5] was 1.5 to 3 h. For the same compound, the “Brain 2-AG” value [2, 6] was 13 pmol/g, the “Brain AA” value [2, 6] was 170 pmol/g and the “Brain AEA” value [2, 6] was 42 pmol/g. For the same compound, the “Brain PEA” value [2, 6] was 785 pmol/g, the “Liver 2-AG” value [2, 6] was 0.25 pmol/g and the “Liver AEA” value [2, 6] was 12 pmol/g. The “Liver PEA” value [2, 6] was 472 pmol/g, the “Brain 2-AG” value [2, 7] was 7.0 pmol/g and the “Brain AEA” value [2, 7] was 28.6 pmol/g. For the same compound, the “Brain PEA” value [2, 7] was 599 pmol/g, the “Brain 2-AG” value [2, 8] was 11.5 pmol/g and the “Brain AEA” value [2, 8] was 43.2 pmol/g. The “Brain PEA” value [2, 8] was 772 pmol/g, the “increases in brain levels of N-palmitoyl ethanolamine and N-oleoyl ethanolamine” value ([2]; p.o. 10, 25 and 50 mg/kg, 1 h) was 5.5-7.8 fold and the “increase in brain levels of anandamide” value ([2]; p.o. 25-50 mg/kg, 1 h) was 12-13 fold. The “duration of effect on cold allodynia” value [3] was greater than 9 h, the “duration of effect on mechanical allodynia” value [3] was greater than 6 h and the “mechanical or cold allodynia in control (contralateral) paws” value [3] was “no effect”. The “duration of attenuation of neuropathic pain” value ([3]; FIG. 9 legend) was “up to 9 hours” and the cannabimimetic side effects [4] was “did not produce catalepsy, hypothermia, or hypomotility”.
